# Laboratory results taken from patent US7635716B2, “Substituted cyclopentanes or cyclopentanones as therapeutic agents” (Allergan, Inc., priority 2005, dated 2009).
# Like-named read-outs stand apart in the source and are kept apart here.
# Columns and labels:
# [1] = target: T1, hEP4 (Homo sapiens, UniProt P35408); assay: Radioligand binding, [3H]PGE2, HEK-293 cells stably expressing EP4 receptors
# T1 construct: expressed in transfected cells; host or cells: HEK-293 cells (plasma membrane fraction)
# T1 sequence (P35408 whole entry): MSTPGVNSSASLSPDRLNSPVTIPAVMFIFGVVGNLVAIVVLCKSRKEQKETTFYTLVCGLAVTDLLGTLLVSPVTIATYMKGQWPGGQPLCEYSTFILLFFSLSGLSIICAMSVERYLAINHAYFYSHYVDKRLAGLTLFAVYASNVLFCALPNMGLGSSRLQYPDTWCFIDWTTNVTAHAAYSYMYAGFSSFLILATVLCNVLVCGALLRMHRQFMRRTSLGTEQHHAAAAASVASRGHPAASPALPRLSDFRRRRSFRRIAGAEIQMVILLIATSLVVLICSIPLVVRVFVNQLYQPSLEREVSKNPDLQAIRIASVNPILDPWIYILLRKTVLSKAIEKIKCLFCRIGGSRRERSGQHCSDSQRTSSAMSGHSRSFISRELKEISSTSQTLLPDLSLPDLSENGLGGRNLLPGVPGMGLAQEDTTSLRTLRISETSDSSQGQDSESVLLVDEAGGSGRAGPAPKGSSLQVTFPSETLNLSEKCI
# Experimental: (§1) HEK-293 cells stably expressing the human or feline FP receptor, or EP1, EP2, or EP4 receptors were washed with TME buffer, scraped from the bottom of the flasks, and homogenized for 30 sec using a Brinkman PT 10/35 polytron. TME buffer was added to achieve a final 40 ml volume in the centrifuge tubes (the composition of TME is 100 mM TRIS base, 20 mM MgCl2, […]; 10N HCl is added to achieve a pH of 7.4).
# (§2) The cell homogenate was centrifuged at 19000 r.p.m. for 20 min at 4° C. using a Beckman Ti-60 rotor. The resultant pellet was resuspended in TME buffer to give a final 1 mg/ml protein concentration, as determined by Biorad assay. Radioligand binding competition assays vs. [^3H—]17 phenyl PGF2. (5 nM) were performed in a 100 μl volume for 60 min. Binding reactions were started by adding plasma membrane fraction. The reaction was terminated by the addition of 4 ml ice-cold TRIS-HCl buffer and rapid filtration through glass fiber GF/B filters using a Brandel cell harvester. The filters were washed 3 times with ice-cold buffer and oven dried for one hour.
# [^3H—] PGE2 (specific activity 180 Ci mmol) was used as the radioligand for EP receptors. [^3H] 17-phenyl PGF2α was employed for FP receptor binding studies. […] A 200 μl assay volume was used. Incubations were for 60 min at 25° C. and were terminated by the addition of 4 ml of ice-cold 50 mM TRIS-HCl, followed by rapid filtration through Whatman GF/B filters and three additional 4 ml washes in a cell harvester (Brandel). Competition studies were performed using a final concentration of 5 nM [^3H]-PGE2, or 5 nM [^3H] 17-phenyl PGF2α and non-specific binding determined with 10^−5M of unlabeled PGE2, or 17-phenyl PGF2α, according to receptor subtype studied.
# [2] = target: hEP2 (Homo sapiens, UniProt P43116); assay: Competition binding, [3H]PGE2, HEK 293 cells stably expressing human EP2 receptors; set-up: expressed in transfected cells; host or cells: HEK 293 cells (membranes or whole cells)
# hEP2, sequence (P43116 whole entry): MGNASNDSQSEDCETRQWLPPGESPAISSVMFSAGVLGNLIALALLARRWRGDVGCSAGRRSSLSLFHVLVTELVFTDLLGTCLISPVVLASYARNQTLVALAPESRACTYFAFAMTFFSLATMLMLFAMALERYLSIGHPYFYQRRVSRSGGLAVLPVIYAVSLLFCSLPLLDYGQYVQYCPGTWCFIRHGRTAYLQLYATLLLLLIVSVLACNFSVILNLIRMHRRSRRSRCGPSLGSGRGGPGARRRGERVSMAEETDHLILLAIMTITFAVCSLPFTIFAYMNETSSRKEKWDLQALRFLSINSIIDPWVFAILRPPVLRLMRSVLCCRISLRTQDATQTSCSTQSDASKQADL
# Experimental: Competition binding experiments were performed in a medium containing Hank's balanced salt solution, Hepes 20 mM, pH 7.3, membranes (˜60 μg protein) or 2×10^5 cells from HEK 293 cells stably expressing human EP2 receptors, [^3H]PGE2 (10 nM) and various concentrations of test compounds in a total volume of 300 μL. Reaction mixtures were incubated at 23° C. for 60 min, and were filtered over Whatman GF/B filters under vacuum. Filters were washed three times with 5 ml ice-cold buffer containing 50 mM Tris/HCl (pH 7.3). Non-specific binding was estimated in the presence of excess unlabeled PGE2 (10 μM). Binding data fitted to the binding model for a single class of binding sites, using nonlinear regression analysis. IC50 values thus obtained were converted to Ki using the equation of Ki=(IC50/(1+[L]/KD) where [L] represents PGE2 concentration (10 nM) and KD the dissociation constant for [^3H]PGE2 at human EP2 receptors (40 nM).
# as §1, §2
# [^3H—] PGE2 (specific activity 180 Ci mmol) was used as the radioligand for EP receptors. [^3H] 17-phenyl PGF2α was employed for FP receptor binding studies. Binding studies employing EP1, EP2, EP4 and FP receptors were performed in duplicate in at least three separate experiments. A 200 μl assay volume was used. Incubations were for 60 min at 25° C. and were terminated by the addition of 4 ml of ice-cold 50 mM TRIS-HCl, followed by rapid filtration through Whatman GF/B filters and three additional 4 ml washes in a cell harvester (Brandel). Competition studies were performed using a final concentration of 5 nM [^3H]-PGE2, or 5 nM [^3H] 17-phenyl PGF2α and non-specific binding determined with 10^−5M of unlabeled PGE2, or 17-phenyl PGF2α, according to receptor subtype studied.
# [3] = Table 1, first part, triplicate, read-out: binding data (Ki) hEP4
# [4] = Table 1, first part, triplicate, read-out: binding data (Ki) hEP2
# [5] = Table 1, second part, read-out: hEP4 Ki
# [6] = Table 1, second part, read-out: hEP2 Ki
Compound,"Ki [1, 3] [µM]","Ki [2, 4] [µM]","Ki [1, 5] [µM]","Ki [2, 6] [µM]"
"O=C(O)CCCCCC[C@H]1C(=O)CC[C@@H]1COc1ccccc1 [Example 6, 7-((1R,5S)-2-Oxo-5-phenoxymethyl-cyclopentyl)-heptanoic acid]",2.65,6.25,,
"O=C(O)CCC/C=C\C[C@@H]1[C@@H](COc2ccccc2)[C@H](O)C[C@H]1Cl [Example 8, (Z)-7-((1R,2S,3R,5R)-5-Chloro-3-hydroxy-2-phenoxymethyl-cyclopentyl)-hept-5-enoic acid]",> 10,1.26,> 10,
"(Z)-7-((1R,2S,3R)-3-Hydroxy-5-oxo-2-phenoxymethyl-cyclopentyl)-hept-5-enoic acid [Example 4]",> 10,13.4,> 10,> 10
"(Z)-7-((1R,5S)-2-Oxo-5-phenoxymethyl-cyclopent-3-enyl)-hept-5-enoic acid [Example 3]",> 10,> 10,> 10,13.4

# Other lines, results leading:
"Ki [1, 3] [µM]","Ki [2, 4] [µM]","Ki [1, 5] [µM]","Ki [2, 6] [µM]",Compound
> 10,1.7,> 10,,"O=C(O)CCCCCC[C@@H]1[C@@H](COc2ccccc2)[C@H](O)C[C@H]1Cl [Example 10, 7-((1R,2S,3R,5R)-5-Chloro-3-hydroxy-2-phenoxymethyl-cyclopentyl)-heptanoic acid]"
0.94,0.012,0.94,0.012,"O=C(O)CCC/C=C\C[C@@H]1[C@@H](COc2cc(Cl)cc(Cl)c2)[C@H](O)C[C@H]1Cl [Example 12, (Z)-7-[(1R,2S,3R,5R)-5-Chloro-2-(3,5-dichloro-phenoxymethyl)-3-hydroxy-cyclopentyl]-hept-5-enoic acid]"
3.04,0.076,,,"O=C(O)CCCCCC[C@@H]1[C@@H](COc2cc(Cl)cc(Cl)c2)[C@H](O)C[C@H]1Cl [Example 14, 7-[(1R,2S,3R,5R)-5-Chloro-2-(3,5-dichloro-phenoxymethyl)-3-hydroxy-cyclopentyl]-heptanoic acid]"
